According to the NIST ThermoML archive (doi:10.1021/je050092d):

Legend:
[1] = for molar entropy: 101.33 kPa, Vacuum adiabatic calorimetry
[2] = Molar enthalpy of transition or fusion; details: Adiabatic calorimetry

CCCCCCCCCCCCCCCCCC(=O)OCC(COC(=O)CCCCCCCCCCCCCCCCC)OC(=O)CCCCCCCCCCCCCCCCC [glycerol trioctadecanoate]
[1]
Details	Normal melting temperature [°C]	Triple point temperature [K]	molar entropy [J/K/mol]
10 K, Crystal	–	–	5.349
20 K, Crystal	–	–	32.09
30 K, Crystal	–	–	74.88
40 K, Crystal	–	–	130.16
50 K, Crystal	–	–	188.99
60 K, Crystal	–	–	251.4
70 K, Crystal	–	–	315.58
80 K, Crystal	–	–	380.66
90 K, Crystal	–	–	443.96
100 K, Crystal	–	–	504.58
110 K, Crystal	–	–	562.52
120 K, Crystal	–	–	618.69
130 K, Crystal	–	–	673.07
140 K, Crystal	–	–	726.56
150 K, Crystal	–	–	778.26
160 K, Crystal	–	–	829.97
170 K, Crystal	–	–	879.89
180 K, Crystal	–	–	929.81
190 K, Crystal	–	–	978.84
200 K, Crystal	–	–	1028.8
210 K, Crystal	–	–	1077.8
220 K, Crystal	–	–	1125.9
230 K, Crystal	–	–	1173.2
240 K, Crystal	–	–	1219.5
250 K, Crystal	–	–	1266.8
260 K, Crystal	–	–	1314
270 K, Crystal	–	–	1361.3
280 K, Crystal	–	–	1408.5
290 K, Crystal	–	–	1456.7
298.15 K, Crystal	–	–	1495.9
300 K, Crystal	–	–	1504.8
310 K, Crystal	–	–	1553.8
320 K, Crystal	–	–	1603.8
330 K, Crystal	–	–	1655.5
Crystal, Adiabatic calorimetry	–	345.94	–
Metastable crystal, Adiabatic calorimetry	54.2	–	–

[2]
Details	Molar enthalpy of transition or fusion [kJ/mol]
Crystal	197.6
Metastable crystal	129
